Where a name gives a salt, the structure may show the parent alone. Read-outs that look alike come from different tables or passages of the source.
Key:
Rat FAAH = target: T1, Rat FAAH (Rattus norvegicus, UniProt P97612); assay: Assay Method 2: rat FAAH assay (3H-anandamide hydrolysis in cell homogenate); format: biochemical
T1 construct: expressed in transfected cells; host or cells: SK-N-MC cells stably transfected with rat FAAH cDNA (G418 selection)
T1 sequence (P97612 1-579): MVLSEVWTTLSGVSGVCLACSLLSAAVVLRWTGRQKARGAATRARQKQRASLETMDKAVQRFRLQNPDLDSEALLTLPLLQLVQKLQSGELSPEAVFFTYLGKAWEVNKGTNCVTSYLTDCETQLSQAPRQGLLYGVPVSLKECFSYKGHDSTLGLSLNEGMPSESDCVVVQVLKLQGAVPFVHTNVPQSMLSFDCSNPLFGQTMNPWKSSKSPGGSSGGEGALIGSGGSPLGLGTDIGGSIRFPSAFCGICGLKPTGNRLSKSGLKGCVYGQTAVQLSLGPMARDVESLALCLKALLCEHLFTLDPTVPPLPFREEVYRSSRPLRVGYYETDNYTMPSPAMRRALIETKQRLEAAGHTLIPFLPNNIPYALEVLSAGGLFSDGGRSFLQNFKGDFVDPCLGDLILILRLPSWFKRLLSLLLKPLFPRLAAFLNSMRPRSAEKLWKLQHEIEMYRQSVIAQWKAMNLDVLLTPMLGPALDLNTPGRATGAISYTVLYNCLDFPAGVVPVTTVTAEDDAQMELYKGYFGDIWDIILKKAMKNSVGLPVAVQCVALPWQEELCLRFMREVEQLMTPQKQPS
Summary of the method: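 Homogenates of T84 cells or SK-N-MC cells stably transfected with rat FAAH, in pH 9 Tris/EDTA/glycerol/Triton buffer, incubated 1 h at room temperature with 3H-anandamide. Released labeled ethanolamine separated from substrate on activated charcoal and counted by scintillation; values averaged over runs.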

FAAH = target: T2, FAAH (Homo sapiens, UniProt O00519); assay: Assay Method 1: human FAAH assay (3H-anandamide hydrolysis in cell homogenate); format: biochemical; set-up: expressed in transfected cells; host or cells: SK-N-MC cells stably transfected with human FAAH cDNA (G418 selection); alternatively T84 cell pellets
T2 sequence (O00519 1-579): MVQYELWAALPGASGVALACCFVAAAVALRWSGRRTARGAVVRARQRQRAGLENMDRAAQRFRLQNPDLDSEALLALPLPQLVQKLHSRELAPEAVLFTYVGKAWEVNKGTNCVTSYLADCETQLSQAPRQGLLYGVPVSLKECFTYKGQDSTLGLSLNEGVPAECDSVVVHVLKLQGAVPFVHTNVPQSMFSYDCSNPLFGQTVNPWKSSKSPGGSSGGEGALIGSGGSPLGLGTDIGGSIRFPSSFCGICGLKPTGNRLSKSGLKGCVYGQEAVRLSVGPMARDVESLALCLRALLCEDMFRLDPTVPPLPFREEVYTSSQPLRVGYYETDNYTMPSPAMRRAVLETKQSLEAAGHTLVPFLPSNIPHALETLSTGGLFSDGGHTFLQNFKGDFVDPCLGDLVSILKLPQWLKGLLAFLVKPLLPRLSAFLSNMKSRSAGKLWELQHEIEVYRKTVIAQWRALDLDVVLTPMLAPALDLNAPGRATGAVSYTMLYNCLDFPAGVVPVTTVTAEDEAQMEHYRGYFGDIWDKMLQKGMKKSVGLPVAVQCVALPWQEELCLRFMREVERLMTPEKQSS
Summary of the method: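 Homogenates of T84 cells or SK-N-MC cells stably transfected with human FAAH, in pH 9 Tris/EDTA buffer with 0.02% Triton X-100. Incubated 1 h at rt with compound and 80 nM (final) [3H-ethanolamine]-anandamide. Released 3H-ethanolamine separated on charcoal filters and counted by scintillation.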

Compound | IC50 (Rat FAAH; read-out: Assay 2 IC50) [nM] | IC50 (FAAH; read-out: Assay 1 IC50) [nM] | IC50 (Rat FAAH) [nM] | IC50 (FAAH) [nM]
O=C(Nc1cnc2ccccn12)N1CCCC2(CN(Cc3cccc(Oc4ccc(Cl)cc4)c3)C2)C1 [Example 34, 2-(3-(4-chlorophenoxy)benzyl)-N-(imidazo[1,2-a]pyridin-3-yl)-2,6-diazaspiro[3.5]nonane-6-carboxamide] | 120 | > 10000 | – | –
O=C(Nc1noc2ccccc12)N1CC2(CCN(Cc3cccc(Oc4ccc(Cl)cc4)c3)CC2)C1 [Example 38, 7-[3-(4-Chloro-phenoxy)-benzyl]-2,7-diaza-spiro[3.5]nonane-2-carboxylic acid benzo[d]isoxazol-3-ylamide] | 20 | 820 | – | –
Cc1cc(NC(=O)N2CC3(CCN(Cc4cccc(Oc5ccc(Cl)cc5)c4)CC3)C2)n[nH]1 [Example 78, 7-(3-(4-chlorophenoxy)benzyl)-N-(5-methyl-1H-pyrazol-3-yl)-2,7-diazaspiro[3.5]nonane-2-carboxamide, trifluoroacetic acid salt] | > 10000 | > 10000 | – | –
O=C(Nc1cccnc1)N1CC2(CCN(Cc3cccc(C#Cc4ccccc4)c3)CC2)C1 [Example 105, 7-(3-(phenylethynyl)benzyl)-N-(pyridin-3-yl)-2,7-diazaspiro[3.5]nonane-2-carboxamide] | 8000 | 370 | – | –
O=C(Nc1cccnc1)N1CC2(CCN(Cc3ccc4ccccc4c3)CC2)C1 [Example 104, 7-(naphthalen-2-ylmethyl)-N-(pyridin-3-yl)-2,7-diazaspiro[3.5]nonane-2-carboxamide] | > 10000 | 2500 | – | –
O=C(Nc1cccnn1)N1CC2(CCN(Cc3cccc(Oc4ccc(Cl)cc4)c3)CC2)C1 [Example 44, 7-[3-(4-Chloro-phenoxy)-benzyl]-2,7-diaza-spiro[3.5]nonane-2-carboxylic acid pyridazin-3-ylamide, trifluoroacetic acid salt] | – | 430 | 260 | –
O=C(Nc1cnccc1Cl)N1CC2(CN(Cc3cccc(Oc4ccc(Cl)cc4)c3)C2)C1 [Example 36, 6-(3-(4-chlorophenoxy)benzyl)-N-(4-chloropyridin-3-yl)-2,6-diazaspiro[3.3]heptane-2-carboxamide] | 30 | 10 | – | –
O=C(Nc1ccc(-n2nccn2)nc1)N1CCC2(CCN(Cc3cccc(Oc4ccc(Cl)cc4)c3)C2)CC1 [Example 1, 2-[3-(4-Chloro-phenoxy)-benzyl]-2,8-diaza-spiro[4.5]decane-8-carboxylic acid (6-[1,2,3]triazol-2-yl-pyridin-3-yl)-amide] | 60 | 20 | – | –
O=C(Nc1noc2cccnc12)N1CC2(CCN(Cc3cccc(Oc4ccc(Cl)cc4)c3)CC2)C1 [Example 67, 7-[3-(4-Chloro-phenoxy)-benzyl]-2,7-diaza-spiro[3.5]nonane-2-carboxylic acid isoxazolo[4,5-b]pyridin-3-ylamide, trifluoroacetic acid salt] | 10 | 160 | – | –
COc1ccc(NC(=O)N2CC3(CCN(Cc4cccc(Oc5ccc(Cl)cc5)c4)CC3)C2)cn1 [Example 49, 7-[3-(4-Chloro-phenoxy)-benzyl]-2,7-diaza-spiro[3.5]nonane-2-carboxylic acid (6-methoxy-pyridin-3-yl)-amide, trifluoroacetic acid salt] | 8000 | 1800 | – | –
O=C(Nc1cncc(Br)c1)N1CC2(CCN(Cc3cccc(Oc4ccc(Cl)cc4)c3)CC2)C1 [Example 82, N-(5-bromopyridin-3-yl)-7-(3-(4-chlorophenoxy)benzyl)-2,7-diazaspiro[3.5]nonane-2-carboxamide, trifluoroacetic acid salt] | 20 | 280 | – | –
O=C(Nc1cnc2[nH]ccc2c1)N1CCC2(CCN(Cc3cccc(Oc4ccc(Cl)cc4)c3)C2)C1 (stereo not drawn) [Example 12, 7-[3-(4-Chloro-phenoxy)-benzyl]-2,7-diaza-spiro[4.4]nonane-2-carboxylic acid (1H-pyrrolo[2,3-b]pyridin-5-yl)-amide] | 100 | 700 | – | –
O=C(Nc1cnc2[nH]ccc2c1)N1CCC2(CCN(Cc3cccc(Oc4ccc(Cl)cc4)c3)CC2)CC1 [Example 15, 9-[3-(4-Chloro-phenoxy)-benzyl]-3,9-diaza-spiro[5.5]undecane-3-carboxylic acid (1H-pyrrolo[2,3-b]pyridin-5-yl)-amide] | 60 | 40 | – | –
O=C(Nc1cccnc1Cl)N1CC2(CCN(Cc3cccc(Oc4ccc(Cl)cc4)c3)CC2)C1 [Example 54, 7-[3-(4-Chloro-phenoxy)-benzyl]-2,7-diaza-spiro[3.5]nonane-2-carboxylic acid (2-chloro-pyridin-3-yl)-amide, trifluoroacetic acid salt] | 190 | 170 | – | –
O=C(Nc1cccnc1)N1CC2(CCN(Cc3cccc(Oc4cccc(C(F)(F)F)c4)c3)CC2)C1 [Example 114, N-(pyridin-3-yl)-7-(3-(3-(trifluoromethyl)phenoxy)benzyl)-2,7-diazaspiro[3.5]nonane-2-carboxamide] | 4000 | 800 | – | –
O=C(Nc1ccc(F)nc1)N1CC2(CCN(Cc3cccc(Oc4ccc(Cl)cc4)c3)CC2)C1 [Example 58, 7-[3-(4-Chloro-phenoxy)-benzyl]-2,7-diaza-spiro[3.5]nonane-2-carboxylic acid (6-fluoro-pyridin-3-yl)-amide, trifluoroacetic acid salt] | 690 | 300 | – | –
O=C(Nc1ccc(-n2nccn2)nc1)N1CCC2(CC1)CN(Cc1cccc(Oc3ccc(Cl)cc3)c1)C2 [Example 6] | 20 | 10 | – | –
O=C(Nc1ccncn1)N1CC2(CCN(Cc3cccc(Oc4ccc(Cl)cc4)c3)CC2)C1 [Example 43, 7-[3-(4-Chloro-phenoxy)-benzyl]-2,7-diaza-spiro[3.5]nonane-2-carboxylic acid pyrimidin-4-ylamide, trifluoroacetic acid salt] | – | – | 5440 | 5660
O=C(Nc1ccc(-n2nccn2)nc1)N1CCC2(CCCN2Cc2cccc(Oc3ccc(Cl)cc3)c2)C1 (stereo not drawn) [Example 8, 1-[3-(4-Chloro-phenoxy)-benzyl]-1,7-diaza-spiro[4.4]nonane-7-carboxylic acid (6-[1,2,3]triazol-2-yl-pyridin-3-yl)-amide] | 3000 | 8000 | – | –
O=C(Nc1cccnc1)N1CCC2(CCCN2Cc2cccc(Oc3ccc(Cl)cc3)c2)CC1 [Example 93, 1-[3-(4-Chloro-phenoxy)-benzyl]-1,8-diaza-spiro[4.5]decane-8-carboxylic acid pyridin-3-ylamide] | 480 | 1100 | – | –
O=C(Nc1cccnc1)N1CC2(CCN(Cc3ccc(Cl)c(OC(F)(F)F)c3)CC2)C1 [Example 110, 7-(4-chloro-3-(trifluoromethoxy)benzyl)-N-(pyridin-3-yl)-2,7-diazaspiro[3.5]nonane-2-carboxamide] | 6000 | 1300 | – | –
O=C(Nc1cccnc1)N1CC2(CN(Cc3cccc(Oc4ccc(Cl)cc4)c3)C2)C1 [Example 35, 6-(3-(4-chlorophenoxy)benzyl)-N-(pyridin-3-yl)-2,6-diazaspiro[3.3]heptane-2-carboxamide] | 700 | 30 | – | –
Cn1cc(Br)c(NC(=O)N2CC3(CCN(Cc4cccc(Oc5ccc(Cl)cc5)c4)CC3)C2)n1 [Example 62, 7-[3-(4-Chloro-phenoxy)-benzyl]-2,7-diaza-spiro[3.5]nonane-2-carboxylic acid (4-bromo-1-methyl-1H-pyrazol-3-yl)-amide, trifluoroacetic acid salt] | > 10000 | > 10000 | – | –
O=C(Nc1ccc(-n2nccn2)nc1)N1CCCC2(CN(Cc3cccc(Oc4ccc(Cl)cc4)c3)C2)C1 [Example 27, N-(6-(2H-1,2,3-triazol-2-yl)pyridin-3-yl)-2-(3-(4-chlorophenoxy)benzyl)-2,6-diazaspiro[3.5]nonane-6-carboxamide] | 200 | 800 | – | –

— patent US20120083476A1, “HETEROARYL-SUBSTITUTED SPIROCYCLIC DIAMINE UREA MODULATORS OF FATTY ACID AMIDE HYDROLASE” (Janssen Pharmaceutica NV, priority 2009, published 2012)
